Measured values published in patent publication US9981899B2, “Composition containing reduced coenzyme Q10 and production method thereof” (KANEKA CORPORATION, priority 2006, dated 2018).

Tests used:
[1] = Crystallinity of reduced coenzyme Q10 in the particulate composition by DSC; assay type: physicochemical; details: after preservation at 25° C. in the air for 30 days; measured/theoretical melting calorie
Protocol: The crystallinity of reduced coenzyme Q10 in the obtained particulate composition was determined by the following DSC (differential scanning calorimeter [EXSTAR6000 manufactured by Seiko Instruments Inc.]) analysis after preservation at 25° C. in the air for 30 days. The particulate compositions obtained in Examples and Comparative Examples were preserved under the above-mentioned given conditions, 10 mg thereof was taken in an aluminum pan and the temperature was elevated from 15° C. to 70° C. at a temperature rise rate of 5° C./min, during which the crystal melting calorie was measured. The crystallinity was calculated according to the following formula using the theoretical melting calorie determined from the content of reduced coenzyme Q10 in the particulate composition and the data of melting calorie actually measured by DSC. Crystallinity (%)=(measured melting calorie/theoretical melting calorie)×100 (Volume Average Particle Size)

[2] = Oxidative stability: residual ratio of reduced coenzyme Q10 after preservation at 40° C. in the air in light shading for 30 days; assay type: physicochemical
Protocol: The reduced coenzyme Q10 residual ratio (%) after preservation at 40° C. in the air for 30 days under shading conditions of the particulate composition containing reduced coenzyme Q10 of the present invention is not particularly limited. It is not less than about 50 wt %, preferably not less than about 60 wt %, more preferably not less than about 70 wt %, still more preferably not less than about 80 wt %, particularly preferably not less than about 90 wt %.
The purity of reduced coenzyme Q10 and the weight ratio (%) of reduced coenzyme Q10 were determined by the following HPLC analysis (weight ratio (%)={reduced coenzyme Q10/(oxidized coenzyme Q10+reduced coenzyme Q10)}×100).

For `COc1c(O)c(C)c(C/C=C(\C)CC/C=C(\C)CC/C=C(\C)CC/C=C(\C)CC/C=C(\C)CC/C=C(\C)CC/C=C(\C)CC/C=C(\C)CC/C=C(\C)CCC=C(C)C)c(O)c1OC` [Comparative Example 1, reduced coenzyme Q10], the “crystallinity measured by DSC” value [1] was 100% and the “residual ratio of the reduced coenzyme Q10” value [2] was 28%.
